Results: patent publication US5373014A, “Rapamycin oximes” (American Home Products Corporation, priority 1993, dated 1994)
Several values for one entry are separate records, joined by “and”; a condition that tells them apart may be missing. Identical values can stand only once. Like-named read-outs stand apart in the source and are kept apart here.

Key:
[1] = tested on: cells from the thymus of normal BALB/c mice (lymphocyte proliferation); test: comitogen-induced thymocyte proliferation procedure (LAF); format: cell-based; conditions: read-out: LAF IC50
Description: (§1) Immunosuppressive activity for representative compounds of this invention was evaluated in an in vitro standard pharmacological test procedure to measure lymphocyte proliferation (LAF) and in an in vivo standard pharmacological test procedure which evaluated the survival time of a pinch skin graft.
Briefly, cells from the thymus of normal BALB/c mice are cultured for 72 hours with PHA and IL-1 and pulsed with tritiated thymidine during the last six hours. […] Cells are harvested and incorporated radioactivity is determined. Inhibition of lymphoproliferation is assessed as percent change in counts per minute from nondrug treated controls. For each compound evaluated, rapamycin was also evaluated for the purpose of comparison. An IC50 was obtained for each test compound as well as for rapamycin. […] The results obtained are provided as an IC50.

[2] = tested on: pinch skin graft from male BALB/c donors transplanted to male C3 H(H-2K) recipients; test: survival time of pinch skin graft (allograft); format: in vivo, male C3 H(H-2K) recipients (mice); conditions: 4 mg/kg, intraperitoneally or orally; untreated controls rejected within 6-7 days
Description: as §1
Representative compounds of this invention were also evaluated in an in vivo test procedure designed to determine the survival time of pinch skin graft from male BALB/c donors transplanted to male C3 H(H-2K) recipients. The method is adapted from Billingham R. E. and Medawar P. B., J. Exp. Biol. 28:385-402, (1951 ). Briefly, a pinch skin graft from the donor was grafted on the dorsum of the recipient as a allograft, and an isograft was used as control in the same region. The recipients were treated with either varying concentrations of test compounds intraperitoneally or orally. Rapamycin was used as a test control. Untreated recipients serve as rejection control. The graft was monitored daily and observations were recorded until the graft became dry and formed a blackened scab. This was considered as the rejection day. The mean graft survival time (number of days±S.D.) of the drug treatment group was compared with the control group. […] Results are expressed as the mean survival time in days. Untreated (control) pinch skin grafts are usually rejected within 6-7 days. […]

[3] = stability under physiological conditions (degradative hydrolysis in phosphate buffer); format: physicochemical
Description: The table below provides the […] in 0.1M phosphate buffer (pH 7.4) at 37° C.

[4] = Mus musculus, Lymphocyte, 72 h culture with PHA and IL-1, tritiated thymidine during last six hours
[5] = 72 h culture with PHA and IL-1, tritiated thymidine during last six hours

Row | SMILES | IC50 [1, 4] [nM] | half-life ([3]; 0.1m phosphate buffer, pH 7.4) [h] | other results
1 | CO[C@H]1C[C@@H]2CC[C@@H](C)[C@@](O)(O2)C(=O)C(=O)N2CCCC[C@H]2C(=O)O[C@H]([C@H](C)C[C@@H]2CC[C@@H](OC(=O)CC[C@H](NC(=O)OC(C)(C)C)C(=O)OC(C)(C)C)[C@H](OC)C2)C/C(=N/OCC#N)[C@H](C)/C=C(\C)[C@@H](O)[C@@H](OC)C(=O)[C@H](C)C[C@H](C)/C=C/C=C/C=C/1C [Example 3, Rapamycin (Z)-27-O-(cyanomethyl)-oxime, 42-ester with N-(tert-butoxycarbonyl)-α-O-(tert-butyl)-L-glutamic Acid] | 432 | – | –
2 | CO/N=C1/C[C@@H]([C@H](C)C[C@@H]2CC[C@@H](OC(=O)CN(C)C)[C@H](OC)C2)OC(=O)[C@@H]2CCCCN2C(=O)C(=O)[C@]2(O)O[C@@H](CC[C@H]2C)C[C@H](OC)/C(C)=C/C=C/C=C/[C@@H](C)C[C@@H](C)C(=O)[C@H](OC)[C@H](O)/C(C)=C/[C@H]1C [Example 7, Rapamycin (Z)-27-(O-methoxime), 42-ester with 2-N,N-dimethylglycine] | 291 | – | –
3 | CO/N=C1/C[C@@H]([C@H](C)C[C@@H]2CC[C@@H](OC(=O)COCC(=O)OCc3ccccc3)[C@H](OC)C2)OC(=O)[C@@H]2CCCCN2C(=O)C(=O)[C@]2(O)O[C@@H](CC[C@H]2C)C[C@H](OC)/C(C)=C/C=C/C=C/[C@@H](C)C[C@@H](C)C(=O)[C@H](OC)[C@H](O)/C(C)=C/[C@H]1C [Example 8, Rapamycin (Z)-27-(O-methoxime), 42-ester with (5-benzyloxycarbonylmethoxy) acetic acid] | 421 | – | –
4 | CO/N=C1\C[C@@H]([C@H](C)C[C@@H]2CC[C@@H](OC(=O)Oc3ccc([N+](=O)[O-])cc3)[C@H](OC)C2)OC(=O)[C@@H]2CCCCN2C(=O)C(=O)[C@]2(O)O[C@@H](CC[C@H]2C)C[C@H](OC)/C(C)=C/C=C/C=C/[C@@H](C)C[C@@H](C)C(=O)[C@H](OC)[C@H](O)/C(C)=C/[C@H]1C [Example 9, Rapamycin (E)-27-(O-methoxime), 42-ester with (4-nitrophenoxy)carbonic acid] | 77 | – | IC50 [1, 5]: 47 nM
5 | CO/N=C1/C[C@@H]([C@H](C)C[C@@H]2CC[C@@H](OC(=O)CC[C@H](NC(=O)OC(C)(C)C)C(=O)OC(C)(C)C)[C@H](OC)C2)OC(=O)[C@@H]2CCCCN2C(=O)C(=O)[C@]2(O)O[C@@H](CC[C@H]2C)C[C@H](OC)/C(C)=C/C=C/C=C/[C@@H](C)C[C@@H](C)C(=O)[C@H](OC)[C@H](O)/C(C)=C/[C@H]1C [Example 10, Rapamycin (Z)-27-(O-methoxime), 42-ester with (S)-5-tertbutoxy-4-tertbutoxycarbonylamino-5-oxo-pentanoic acid] | 4.1 | 264 | Skin Graft mean survival time (days ± SD) [2]: 10.0 ± 0.2 days and 11.2 ± 0.8 days; stability toward degradation compared with rapamycin or the corresponding oxime or ester alone ([3]; pH 7.4): significantly more stable toward degradation than rapamycin, or the corresponding oxime or ester alone
6 | CO/N=C1\C[C@@H]([C@H](C)C[C@@H]2CC[C@@H](OC(=O)CC[C@H](NC(=O)OC(C)(C)C)C(=O)OC(C)(C)C)[C@H](OC)C2)OC(=O)[C@@H]2CCCCN2C(=O)C(=O)[C@]2(O)O[C@@H](CC[C@H]2C)C[C@H](OC)/C(C)=C/C=C/C=C/[C@@H](C)C[C@@H](C)C(=O)[C@H](OC)[C@H](O)/C(C)=C/[C@H]1C [Example 11, Rapamycin (E)-27-(O-methoxime), 42-ester with (S)-5-tertbutoxy-4-tertbutoxycarbonylamino-5-oxo-pentanoic acid] | 372 | – | IC50 [1, 5]: 321 nM
7 | CO/N=C1\C[C@@H]([C@H](C)C[C@@H]2CC[C@@H](O)[C@H](OC)C2)OC(=O)[C@@H]2CCCCN2C(=O)C(=O)[C@]2(O)O[C@@H](CC[C@H]2C)C[C@H](OC)/C(C)=C/C=C/C=C/[C@@H](C)C[C@@H](C)C(=O)[C@H](OC)[C@H](O)/C(C)=C/[C@H]1C [Rapamycin (E)-27-(O-methoxime), rapamycin (E)-27-(O-methoxime)] | – | 59 | –
8 | CO/N=C1/C[C@@H]([C@H](C)C[C@@H]2CC[C@@H](O)[C@H](OC)C2)OC(=O)[C@@H]2CCCCN2C(=O)C(=O)[C@]2(O)O[C@@H](CC[C@H]2C)C[C@H](OC)/C(C)=C/C=C/C=C/[C@@H](C)C[C@@H](C)C(=O)[C@H](OC)[C@H](O)/C(C)=C/[C@H]1C [Rapamycin (Z)-27-(O-methoxime), rapamycin (Z)-27-(O-methoxime)] | – | 156 | –
9 | CO[C@H]1C[C@@H]2CC[C@@H](C)[C@@](O)(O2)C(=O)C(=O)N2CCCC[C@H]2C(=O)O[C@H]([C@H](C)C[C@@H]2CC[C@@H](O)[C@H](OC)C2)CC(=O)[C@H](C)/C=C(\C)[C@@H](O)[C@@H](OC)C(=O)[C@H](C)C[C@H](C)/C=C/C=C/C=C/1C [Rapamycin] | – | – | IC50 ([1]; Mus musculus, Lymphocyte): 0.4 to 5.1 nM; Skin Graft mean survival time (days ± SD) [2]: 12.0 ± 1.7 days; half-life ([3]; 0.1M phosphate buffer (pH 7.4) at 37° C., read-out: Half Life (converted)): 13 h
10 | CO[C@H]1C[C@@H]2CC[C@@H](C)[C@@](O)(O2)C(=O)C(=O)N2CCCC[C@H]2C(=O)O[C@H]([C@H](C)C[C@@H]2CC[C@@H](OC(=O)CC[C@H](NC(=O)OC(C)(C)C)C(=O)OC(C)(C)C)[C@H](OC)C2)CC(=O)[C@H](C)/C=C(\C)[C@@H](O)[C@@H](OC)C(=O)[C@H](C)C[C@H](C)/C=C/C=C/C=C/1C [rapamycin 42-ester with (S)-5-tertbutoxy-4-tertbutoxycarbonylamino-5-oxo-pentanoic acid, reference compound] | – | 24 | –
